The values below come from patent US4968494A, “Methods and compositions for thrombolytic therapy” (Merck & Co., Inc., priority 1990, dated 1990).

The structures appear in SMILES notation.

In general, inhibition refers to the drop in the measured response relative to a control, in per cent.

One experiment addresses T1, Factor XIIIa (Homo sapiens, UniProt P00488).
T1 construct: from tissue; host or cells: human plasma
T1 sequence (P00488 39-732 limits assumed): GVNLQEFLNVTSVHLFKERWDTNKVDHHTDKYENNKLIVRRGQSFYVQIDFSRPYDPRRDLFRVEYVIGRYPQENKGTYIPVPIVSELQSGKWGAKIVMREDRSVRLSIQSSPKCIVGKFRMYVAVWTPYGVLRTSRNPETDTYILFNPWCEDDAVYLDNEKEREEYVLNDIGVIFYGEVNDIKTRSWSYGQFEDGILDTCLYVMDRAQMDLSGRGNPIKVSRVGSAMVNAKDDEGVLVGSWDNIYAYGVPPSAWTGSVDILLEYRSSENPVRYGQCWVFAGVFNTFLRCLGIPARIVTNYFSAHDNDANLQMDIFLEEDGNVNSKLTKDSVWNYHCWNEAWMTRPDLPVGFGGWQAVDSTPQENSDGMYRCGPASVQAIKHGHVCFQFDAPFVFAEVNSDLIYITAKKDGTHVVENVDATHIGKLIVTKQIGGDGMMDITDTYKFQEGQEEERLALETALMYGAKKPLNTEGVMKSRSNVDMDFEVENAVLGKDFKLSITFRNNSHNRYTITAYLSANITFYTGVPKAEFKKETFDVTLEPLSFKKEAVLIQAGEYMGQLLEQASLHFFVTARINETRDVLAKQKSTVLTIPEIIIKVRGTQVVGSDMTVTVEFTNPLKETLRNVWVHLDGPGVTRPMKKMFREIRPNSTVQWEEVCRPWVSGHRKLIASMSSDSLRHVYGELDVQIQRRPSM
The experiment in a line: Factor XIIIa inhibitor assay (incorporation of ^14 C-putrescine into casein catalyzed by Factor XIIIa). In kind it is biochemical. To be noted: read-out: Percent Inhibition. The method, then:
The Factor XIIIa inhibitor assay is based on the incorporation of ^14 C-putrescine into casein catalyzed by Factor XIIIa. The assay is carried out employing the procedure described in Methods in Enzymology, Vol. 45, Ch 15., pages 177-191 (1976) and using Factor XIII (F XIII) isolated from human plasma. The procedure is summarized briefly and schematically illustrated as follows: [drawing 16]
Factor XIII assay mixtures are prepared by adding stepwise, appropriate prepared solutions of thrombin and dithiothreitol (DTT) to a mixture comprising Factor XIII in glycerol/water and tris(hydroxymethyl)aminomethane hydrochloride (Tris.cndot.HCl). To a portion of the mixture is added calcium chloride as source of calcium ions required for enzyme activity and to the remaining mixture is added instead of calcium ions ethylenediaminetetracetic acid (EDTA) which serves as a blank for background.
A substrate mixture is prepared from ^14 C-putrescine and […].
The assay tubes and control tubes are charged with the substrate mixture and incubated at 37° C. for 220 minutes. Samples are withdrawn from each tube, spotted onto a filter disk which is then immersed in ice cold trichloroacetic acid solution to precipitate the casein on the filter. The filter is then washed to remove unincorporated or free ^14 C-putrescine and after drying is counted for ^14 C-putrescine incorporated to casein from which percent activity and/or inhibition can be calculated.

A further experiment deals with blood clots. The experiment can be described thus: in vitro clot lysis assay (TPA-catalyzed lysis of ^125 I-fibrin labelled clot). The class given is biochemical. The settings on record: 200 μM cerulenin, buffer pH 7.5. The method, then:
In the assay, whole blood or plasma is charged with ^125 I-fibrinogen. Thrombin is added to initiate clot formation and subsequently incubated for 2 hours to complete the cross-linking by endogenous Factor XIII. Factor XIIIa inhibitor is added prior to clot initiation or at various times during the 2-hour incubation. At the end of this period, the labelled clot is washed and lysis is initiated by exogenous tissue plasminogen activator (TPA). Exogenous plasminogen is employed in some experiments. Endogenous plasminogen is used for others. Clot dissolution as a function of time is monitored by the release of solubilized ^125 I-fibrin-derived fragments.
In FIGS. 1 and 2, the open symbols indicate absence of cerulenin and the closed symbols indicate the presence of 200μM cerulenin at the time of clot formation. Clot lysis is conducted in buffer, pH 7.5; 5 ng/mL TPA represents approximate physiologic concentration. 50 to […] represents pharmacologic concentration range. […] FIG. 2 studies employed glu-plasminogen levels at approximately 10 percent physiologic level (12μ/mL)

Regarding `O=C(O)C=Cc1nc2ccccc2[nH]1` [3-(Benzimidazol-2-yl)-acrylic acid, 3-(benzimidazol-2-yl)acrylic acid], at Factor XIIIa (1.3 × 10^-5 M), the inhibition at 13 µM turned out to be 91%. Besides, the inhibition at 1.5 µM on Factor XIIIa (1.5 × 10^-6 M) was found to be 52%. The inhibition at 0.17 µM on Factor XIIIa (1.7 × 10^-7 M) stood at 9%. Further, on Factor XIIIa (4.5 × 10^-6 M), the inhibition at 4.5 µM is 78%. Further, at Factor XIIIa (5 × 10^-7 M), the inhibition at 0.5 µM came to 19%.
Turning to `C/C=C/C/C=C/CCC(=O)[C@H]1O[C@H]1C(N)=O` [Cerulenin, (2R,3S)-2,3-epoxy-4-oxo-7E,10E-dodecadienamide], the inhibition at 62 µM at Factor XIIIa (6.2 × 10^-5 M) is 100%. Moreover, the inhibition at 6.2 µM at Factor XIIIa (6.2 × 10^-6 M) is 64%. In addition, at Factor XIIIa (6.2 × 10^-7 M), the inhibition at 0.62 µM was determined as 22%. For the same molecule, the lysis rates result in the experiment on blood clots (12 μg/mL exogenous glu-plasminogen, TPA, FIG. 2) is reported as “lysis rates were further enhanced”. The “rates and extents of lysis” value with blood clots (no exogenous plasminogen, physiological and pharmacological levels of TPA, FIG. 1) is “enhanced rates and extents of lysis”.
